Source: patent US9381186B2, “Substituted chroman derivatives, medicaments and use in therapy” (MEI Pharma, Inc., priority 2004, dated 2016)
Converted amounts (≈) assume the structure as drawn. Read-outs that look alike come from different tables or passages of the source.

How the values were obtained:
RK (rabbit kidney) cells = experiment: Cytotoxicity (MTT proliferation assay) against rabbit kidney cells; format: cell-based
Description: (§1) The normal cell line NFF (neonatal foreskin fibroblasts) was a gift from Dr. Peter Parsons (Queensland Institute of Medical Research). RK (rabbit kidney) cells were obtained from Miller Whalley (Macquarie University). Both cell lines were cultured in RPMI supplemented with 10% FCS (CSL, Australia), penicillin (100 U/ml), streptomycin ([…]), L-glutamine (2 mM) and sodium bicarbonate (1.2 g/L), and cultured at 37° C. in a humidified atmosphere of 5% CO2
(§2) IC50 values were determined for each cell line. Cells were seeded in 96-well plates at an appropriate cell density as determined from growth kinetics analysis and cultured for 5 days in the absence and presence of the test compounds. Cell proliferation was assessed after the addition of 20 μl of 3-4,5 dimethylthiazol-2,5-diphenyl tetrazolium bromide (MTT, 2.5 mg/ml in PBS, Sigma) for 3-4 hrs at 37° C. according to manufacturer's instructions. IC50 values were calculated from semi-log plots of % of control proliferation on the y-axis against log dose on the x-axis.

CP70 = experiment: MTT proliferation assay, ovarian CP70; format: cell-based
HTB-138 = experiment: MTT proliferation assay, glioma HTB-138; format: cell-based
Description: (§3) An cultures were supplemented with 10% FCS (CSL, Australia), penicillin (100 U/ml), streptomycin ([…]), L-glutamine (2 mM) and sodium bicarbonate (1.2 g/L), and cultured at 37° C. in a humidified atmosphere of 5% CO2. All cell lines were purchased from ATCC (Maryland, USA) except where noted.
as §2

CCRF-CEM = experiment: MTT proliferation assay, leukaemia (ALL) CCRF-CEM; format: cell-based; conditions: Homo sapiens, Table 2.2
Description: as §3, §2

MM200 = experiment: MTT proliferation assay, melanoma MM200; format: cell-based
[1] = Oral pharmacokinetics in female BALB/c mice; format: in vivo, mouse
Description: Compound No. 1 labelled above was prepared as homogenous suspensions in 1% CMC (m:v, water). The formulation was delivered orally by gavage to female BALB/c mice at a dosage of 50 mg/kg. Three animals were allocated to each timepoint (15 min, 30 min, 1 hr, 4 hr and 24 hr). At each respective timepoint, animals were euthanised by cervical dislocation and blood collected. The concentration of free compound was analysed by mass spectroscopy.

[2] = tested on: NFF (neonatal foreskin fibroblasts); experiment: Cytotoxicity (MTT proliferation assay) against neonatal foreskin fibroblasts; format: cell-based, Human; conditions: Homo sapiens, Fibroblast
Description: as §1, §2

PC3 = experiment: MTT proliferation assay, prostate PC3; format: cell-based; conditions: Homo sapiens, PC-3
Description: as §3, §2

[3] = tested on: murine macrophages (RAW 264.7) stimulated with LPS; experiment: Eicosanoid synthesis in LPS-stimulated RAW 264.7 macrophages; format: cell-based, mouse; conditions: test compound 10 μM, LPS 50 ng/ml, 16 hrs; negative = inhibition
Description: The mouse macrophage cell line RAW 264.7 was cultured in DMEM supplemented with foetal calf serum (FCS), 2 mM glutamine and 50 U/ml penicillin/streptomycin. Subconfluent cells were detached from the flask by gentle scraping and 24-well plates seeded at 5×10^5 cells per well and allowed to adhere for 1 hr. Cells were then treated either test compound at a concentration of 10 μM (in 0.025% DMSO) or vehicle alone, and incubated for 1 hr. LPS 50 ng/ml (LPS—Sigma-Aldrich) was then added. After incubation for 16 hrs, culture media was collected and stored at −80° C. for ecosanoid measurements using enzyme immunometric assays (PGE2 and TXB2—Cayman Chemical).

cancer cell lines = experiment: Proliferation assays, panel of cancer cell lines; format: cell-based; conditions: CP70, PC3, MDA-MB-468, HTB-138 and lung cancer cell lines
MDA-MB-468 = experiment: MTT proliferation assay, breast MDA-MB-468; format: cell-based; conditions: Homo sapiens
HT-29 = experiment: MTT proliferation assay, colorectal HT-29; format: cell-based; conditions: for IC50: Homo sapiens
Description: as §3, §2

NCI-H23 = experiment: MTT proliferation assay, lung NCI-H23; format: cell-based; conditions: Homo sapiens; Lung NCI-H23, Table 2.1; read-out: cytoxicity (IC50)
Description: as §3, §2

HPAC = experiment: MTT proliferation assay, pancreatic HPAC; format: cell-based; conditions: Homo sapiens, Table 2.2
NCI-H460 = experiment: MTT proliferation assay, NSC lung NCI-H460; format: cell-based; conditions: Homo sapiens; NSC Lung NCI-H460, Table 2.2
Description: as §3, §2

[4] = Preliminary formulation study, solubility in 20% HPBCD; format: physicochemical; conditions: aqueous with cosolvent or surfactant or cyclodextrin, preliminary formulation studies

SMILES: COc1ccc(C2c3ccc(O)c(C)c3OCC2c2ccc(O)cc2)cc1 (stereo not shown) [Compound 1, 3-(4-hydroxyphenyl)-4-(4-methoxyphenyl)-8-methyl-3,4-dihydro-2H-chromen-7-ol]
- IC50 (RK (rabbit kidney) cells; Oryctolagus cuniculus, rabbit kidney cells): > 60000 nM
- IC50 (RK (rabbit kidney) cells; Rabbit Kidney cells): > 60000 nM
- IC50 (CP70; Ovarian CCP70, Table 2.1, read-out: cytoxicity (IC50)): 1700 nM
- IC50 (CP70; Ovarian CP70, Table 2.2, read-out: IC50): 1900 ± 400 nM
- IC50 (HTB-138; Glioma HTB-138, Table 2.1, read-out: cytoxicity (IC50)): 1100 nM
- IC50 (HTB-138; Glioma HTB-138, Table 2.2, read-out: IC50): 1160 nM
- IC50 (CCRF-CEM): 1600 ± 1200 nM
- IC50 (MM200; Melanoma MM200, Table 2.1, read-out: cytoxicity (IC50)): 1000 ± 10 nM
- IC50 (MM200; Melanoma MM200, Table 2.2, read-out: IC50): 780 ± 230 nM
- concentration at 1 h ([1]; female, BALB/c, mouse, faeces, po, 50 mg/kg, oral 50 mg/kg, Time 1 (head prints days), read-out: Faeces Free): 1060 ± 913 µM
- concentration at 4 h ([1]; female, BALB/c, mouse, faeces, po, 50 mg/kg, oral 50 mg/kg, Time 4 (head prints days), read-out: Faeces Free): 1790 ± 625 µM
- concentration at 24 h ([1]; female, BALB/c, mouse, faeces, po, 50 mg/kg, oral 50 mg/kg, Time 24 (head prints days), read-out: Faeces Free): 800 ± 670 µM
- half-life ([1]; female, BALB/c, mouse, serum, 50 mg/kg, oral, sera, read-out: half life): ~30 min
- concentration at 0.25 h ([1]; female, BALB/c, mouse, serum, po, 50 mg/kg, oral 50 mg/kg, Time 0.25 (head prints days), read-out: Serum Free): 27.3 ± 23 µM
- concentration at 0.5 h ([1]; female, BALB/c, mouse, serum, po, 50 mg/kg, oral 50 mg/kg, Time 0.5 (head prints days), read-out: Serum Free): 8.2 ± 6.5 µM
- concentration at 1 h ([1]; female, BALB/c, mouse, serum, po, 50 mg/kg, oral 50 mg/kg, Time 1 (head prints days), read-out: Serum Free): 2.4 ± 1.6 µM
- concentration at 4 h ([1]; female, BALB/c, mouse, serum, po, 50 mg/kg, oral 50 mg/kg, Time 4 (head prints days), read-out: Serum Free): 0.3 ± 0.02 µM
- concentration at 24 h ([1]; female, BALB/c, mouse, serum, po, 50 mg/kg, oral 50 mg/kg, Time 24 (head prints days), read-out: Serum Free): 0.05 ± 0.02 µM
- concentration at 0.25 h ([1]; female, BALB/c, mouse, serum, po, 50 mg/kg, oral, Time 0.25, Table 4, read-out: Free concentration, comparative oral pharmacokinetic data): 27.3 ± 23 µM
- concentration at 0.5 h ([1]; female, BALB/c, mouse, serum, po, 50 mg/kg, oral, Time 0.5, Table 4, read-out: Free concentration, comparative oral pharmacokinetic data): 8.2 ± 6.5 µM
- concentration at 1 h ([1]; female, BALB/c, mouse, serum, po, 50 mg/kg, oral, Time 1, Table 4, read-out: Free concentration, comparative oral pharmacokinetic data): 2.4 ± 1.6 µM
- concentration at 4 h ([1]; female, BALB/c, mouse, serum, po, 50 mg/kg, oral, Time 4, Table 4, read-out: Free concentration, comparative oral pharmacokinetic data): 0.33 ± 0.02 µM
- concentration at 24 h ([1]; female, BALB/c, mouse, serum, po, 50 mg/kg, oral, Time 24, Table 4, read-out: Free concentration, comparative oral pharmacokinetic data): 0.05 ± 0.02 µM
- concentration at 30 min ([1]; female, BALB/c, mouse, serum, po, 50 mg/kg, oral, after 30 min, read-out: free concentration in sera): 8.2 µM
- concentration at 1 hr ([1]; female, BALB/c, mouse, serum, po, 50 mg/kg, oral, after 1 hr, read-out: free concentration in sera): 2.4 µM
- concentration at 0.25 h ([1]; female, BALB/c, mouse, urine, po, 50 mg/kg, oral 50 mg/kg, Time 0.25 (head prints days), read-out: Urine Free): 17.1 ± 7.2 µM
- concentration at 0.5 h ([1]; female, BALB/c, mouse, urine, po, 50 mg/kg, oral 50 mg/kg, Time 0.5 (head prints days), read-out: Urine Free): 22.1 ± 1.5 µM
- concentration at 1 h ([1]; female, BALB/c, mouse, urine, po, 50 mg/kg, oral 50 mg/kg, Time 1 (head prints days), read-out: Urine Free): 26.3 ± 2.2 µM
- concentration at 4 h ([1]; female, BALB/c, mouse, urine, po, 50 mg/kg, oral 50 mg/kg, Time 4 (head prints days), read-out: Urine Free): 1.1 ± 0.1 µM
- concentration at 24 h ([1]; female, BALB/c, mouse, urine, po, 50 mg/kg, oral 50 mg/kg, Time 24 (head prints days), read-out: Urine Free): 0.1 ± 0.1 µM
- share of compound recovered from faeces present in free form ([1]; oral): ~100%
- Cmax of free compound in sera ([1]; oral, 15 minutes post administration): 27.3 µM
- free concentration relative to phenoxodiol ([1]; oral, after 15 and 30 min): 10-20 fold
- concentration relative to phenoxodiol ([1]; oral, after 1 hr): Approximately 2 fold
- share present as the free entity in urine ([1]; oral, at any time-point): ≤ 2%
- IC50 ([2]; Neonatal Foreskin Fibroblasts (Human, NFF), read-out: IC50): ~2000 nM
- IC50 ([2]; non-transformed neonatal foreskin fibroblasts, read-out: IC50): 2000 nM
- IC50 ([2]; text says rabbit kidney cells, values are those of the NFF line of Table 1, read-out: degree of toxicity (IC50)): 2000 nM
- IC50 (PC3; Prostate PC3, Table 2.1, read-out: cytoxicity (IC50)): 1700 ± 500 nM
- IC50 (PC3; Prostate PC3, Table 2.2, read-out: IC50): 1600 ± 800 nM
- Percentage change in PGE2 synthesis compared with vehicle [3]: −53.8%
- Percentage change in TXB2 synthesis compared with vehicle [3]: −15.9%
- activity relative to phenoxodiol (IC50 comparison) (cancer cell lines): 2-10 fold
- IC50 (MDA-MB-468; Breast MDA-MB-468, Table 2.1, read-out: cytoxicity (IC50)): 600 ± 10 nM
- IC50 (MDA-MB-468; Breast MDA-MB-468, Table 2.2, read-out: IC50): 1000 ± 600 nM
- IC50 (HT-29; Colorectal HT-29, Table 2.1, read-out: cytoxicity (IC50)): 17400 nM
- IC50 (HT-29; Colorectal HT-29, Table 2.2, read-out: IC50): 15700 ± 2400 nM
- activity in words (HT-29; colorectal cell line HT-29): moderately active
- IC50 (NCI-H23): 1900 ± 100 nM
- IC50 (HPAC): 51700 ± 8000 nM
- IC50 (NCI-H460): 1200 ± 450 nM
- solubility [4]: 11.2 mg/mL (≈ 30.9 mM)
